Read-outs that look alike come from different tables or passages of the source.
Biological target: T1, SIRT1 (Homo sapiens, UniProt Q96EB6)
T1 sequence (Q96EB6 1-747): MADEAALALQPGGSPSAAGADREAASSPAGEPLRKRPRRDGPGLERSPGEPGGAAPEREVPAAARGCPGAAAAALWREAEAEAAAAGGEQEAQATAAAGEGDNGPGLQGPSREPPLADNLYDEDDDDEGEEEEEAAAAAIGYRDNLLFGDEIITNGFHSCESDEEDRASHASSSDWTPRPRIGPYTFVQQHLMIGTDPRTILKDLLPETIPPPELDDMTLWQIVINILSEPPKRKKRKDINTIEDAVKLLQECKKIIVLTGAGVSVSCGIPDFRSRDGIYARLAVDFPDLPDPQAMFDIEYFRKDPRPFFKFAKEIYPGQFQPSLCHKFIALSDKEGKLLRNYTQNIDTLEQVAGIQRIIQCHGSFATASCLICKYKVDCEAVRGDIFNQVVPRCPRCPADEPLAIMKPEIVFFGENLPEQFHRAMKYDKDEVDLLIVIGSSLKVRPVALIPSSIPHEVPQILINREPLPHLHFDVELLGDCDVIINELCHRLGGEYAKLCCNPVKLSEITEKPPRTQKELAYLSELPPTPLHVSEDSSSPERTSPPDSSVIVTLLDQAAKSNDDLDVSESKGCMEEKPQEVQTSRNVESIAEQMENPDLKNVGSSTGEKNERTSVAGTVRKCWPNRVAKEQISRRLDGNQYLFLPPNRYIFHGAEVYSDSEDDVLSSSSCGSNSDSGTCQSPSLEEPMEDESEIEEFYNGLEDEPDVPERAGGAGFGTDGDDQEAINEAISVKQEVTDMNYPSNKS
Experiment: TAMRA based mass spectrometry assay of SIRT1 activity
Format: biochemical
Settings: for Emax: read-out: TAMRA % Fold Act
Summary of the method: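 Deacetylation of a biotinylated, TAMRA-tagged p53-based peptide (0.5 μM) by 10 nM His-tagged SIRT1 with 120 μM βNAD+, 25 °C for 25 min, pH 8 Tris-acetate buffer, across a compound concentration range. Quenched by formic acid and read by mass spec as product peptide or OAADPR; activity relative to DMSO reactions, nicotinamide defining maximal inhibition.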

[1] = TAMRA assay, concentration giving 150% activation of SIRT1
[2] = TAMRA assay, percent maximum fold activation
[3] = TAMRA peptide substrate, concentration giving 150% activation of SIRT1
[4] = TAMRA peptide substrate, percent maximum fold activation
[5] = concentration of test compound giving 150% activation of SIRT1, TAMRA peptide substrate
[6] = percent maximum fold activation of SIRT1, TAMRA peptide substrate

| TAMRA EC1.5 (μM) [1] | Emax [2] | TAMRA EC1.5 [3] | Emax [4] | TAMRA EC1.5 (μM) [5] | Emax [6] | Compound |
| --- | --- | --- | --- | --- | --- | --- |
| – | – | – | – | A (EC1.5<1 μM) | ≥ 350% | O=C(Nc1nccs1)c1cnc2ccc(-c3ccccc3OC(F)(F)F)nn12 [Compound 13] |
| B (EC1.5 1-25 μM) | ≥ 350% | – | – | – | – | Cc1scnc1C(=O)Nc1cnn2ccc(-c3ccccc3OC(F)(F)F)nc12 [Compound 756] |
| B (EC1.5 1-25 μM) | ≥ 350% | – | – | – | – | Cc1cnc(C(=O)Nc2cnc3ccc(-c4ccccc4Cl)nn23)s1 [Compound 306] |
| B (EC1.5 1-25 μM) | < 350% | – | – | – | – | N#Cc1ccccc1-c1ccc2ncc(C(=O)Nc3ccncc3)n2n1 [Compound 203] |
| – | – | A (EC1.5<1 μM) | ≥ 350% | – | – | Cc1cc(C)nc(C(=O)Nc2cnc3c(C)c(C)c(-c4ccccc4C(F)(F)F)nn23)n1 [Compound 420] |
| – | – | A (EC1.5<1 μM) | ≥ 350% | – | – | O=C(Nc1cccc(N2CC3(CCO3)C2)n1)c1cnc2ccc(-c3ccccc3C(F)(F)F)nn12 [Compound 538] |
| – | – | A (EC1.5<1 μM) | ≥ 350% | – | – | CC1(COc2cccc(NC(=O)c3cnc4ccc(-c5ccccc5OC(F)(F)F)nn34)n2)COC1 [Compound 400] |
| – | – | – | – | B (EC1.5 1-25 μM) | < 350% | CS(=O)(=O)c1ccccc1-c1ccc2ncc(C(=O)Nc3cccc(N4CCOCC4)n3)n2n1 [Compound 185] |
| – | – | A (EC1.5<1 μM) | ≥ 350% | – | – | O=C(Nc1cncc(OC[C@@H](O)CO)n1)c1cnc2ccc(-c3ccccc3C(F)(F)F)nn12 [Compound 556, (S)-N-(6-(2,3-dihydroxypropoxy)pyrazin-2-yl)-6-(2-(trifluoromethyl)phenyl)imidazo[1,2-b]pyridazine-3-carboxamide] |
| A (EC1.5<1 μM) | ≥ 350% | – | – | – | – | O=C(Nc1cnn2ccc(-c3ccccc3C(F)(F)F)nc12)c1nc2c(s1)CCCC2 [Compound 810] |
| – | – | – | – | B (EC1.5 1-25 μM) | < 350% | O=C(Nc1cnccn1)c1cnc2ccc(-c3ccccc3F)nn12 [Compound 139] |
| – | – | A (EC1.5<1 μM) | ≥ 350% | – | – | Cc1nc2c(C)cc(-c3ccccc3C(F)(F)F)nn2c1C(=O)Nc1ccc(F)cn1 [Compound 474] |

Further lines, the molecule ahead of its results:

| Compound | TAMRA EC1.5 (μM) [1] | Emax [2] | TAMRA EC1.5 [3] | Emax [4] | TAMRA EC1.5 (μM) [5] | Emax [6] |
| --- | --- | --- | --- | --- | --- | --- |
| Cc1scnc1C(=O)Nc1cnc2c(C)c(C)c(-c3ccccc3Cl)nn12 [Compound 385] | A (EC1.5<1 μM) | ≥ 350% | – | – | – | – |
| Cc1nn2ccc(-c3ccccc3C(F)(F)F)nc2c1C(=O)Nc1cccc(CN2CCOCC2)n1 [Compound 550] | – | – | A (EC1.5<1 μM) | ≥ 350% | – | – |
| O=C(Nc1nccs1)c1cnc2ccc(-c3cccc(C(F)(F)F)c3)nn12 [Compound 3] | – | – | – | – | B (EC1.5 1-25 μM) | < 350% |
| O=C(Nc1nc(CN2CCOCC2)cs1)c1cnc2ccc(-c3cccc(Cl)c3)nn12 [Compound 27] | – | – | – | – | A (EC1.5<1 μM) | ≥ 350% |
| O=C(Nc1ccccn1)c1cnc2ccc(-c3cccc(N4CCOCC4)c3)nn12 [Compound 10] | – | – | – | – | B (EC1.5 1-25 μM) | < 350% |
| CCOc1cc(NC(=O)c2cnn3ccc(-c4ccccc4C(F)(F)F)nc23)ccn1 [Compound 643] | A (EC1.5<1 μM) | ≥ 350% | – | – | – | – |
| COCCn1cc(NC(=O)c2cnc3ccc(-c4ccccc4C(F)(F)F)nn23)cn1 [Compound 154] | – | – | – | – | B (EC1.5 1-25 μM) | ≥ 350% |
| Cc1cc(-c2ccccc2C(F)(F)F)nn2c(C(=O)Nc3cccc(CN4CCOCC4)n3)cnc12 [Compound 195] | – | – | – | – | A (EC1.5<1 μM) | ≥ 350% |
| Cc1nccc(NC(=O)c2c(C)nc3c(C)cc(-c4ccccc4C(F)(F)F)nn23)n1 [Compound 729] | A (EC1.5<1 μM) | ≥ 350% | – | – | – | – |
| Cc1cc(-c2ccccc2C(F)(F)F)nn2c(NC(=O)c3cccc(N4CCC4)n3)cnc12 [Compound 426] | – | – | A (EC1.5<1 μM) | ≥ 350% | – | – |
| Cc1cc(NC(=O)c2cnn3ccc(-c4ccccc4C(F)(F)F)nc23)nc(C)n1 [Compound 503] | – | – | A (EC1.5<1 μM) | ≥ 350% | – | – |

From patent publication US9957271B2, “Substituted bicyclic aza-heterocycles and analogues as sirtuin modulators” (GlaxoSmithKline, LLC, priority 2012, dated 2018)
